Test results: patent publication US12336987B2, “Quinoline amides and methods of using same” (YALE UNIVERSITY, priority 2015, dated 2025)
Where no end group is shown, it is not given here.

Key:
[1] = target: T1, IAPP (Homo sapiens, UniProt P10997); assay: Kinetic assay of IAPP fibre formation (ThT fluorescence), in solution or catalysed by LUVs; type: biochemical; details: 10 μM IAPP, 630 μM LUVs, IAPP:small molecule 1:1
T1 construct: purchased Genscript; Elim Biopharmaceuticals
T1 sequence (P10997 34-70 limits assumed): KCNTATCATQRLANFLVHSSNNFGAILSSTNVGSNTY
Procedure: Unless otherwise stated, LUVs used in this work were prepared from a 1:1 mixture of DOPG/DOPC. The lyophilized mixture was hydrated in 100 mM KCl, 50 mM sodium phosphate, and pH 7.4 for 20 minutes. A 20 mg/mL solution of lipid in buffer was passed 21 times through a polycarbonate membrane (pore diameter=100 nm).
Amyloid reactions were conducted in buffer containing liposome (630 μM lipid) and 20 μM ThT in a black 96-well plate. This was followed by addition of small molecule dissolved in DMSO (final DMSO concentration=0.5%, v/v). […] The final volume in each well was 200 μL. Kinetics of fibrillation was monitored by ThT fluorescence (Ex 450 nm and Em 485 nm) using a FluoDia T70 fluorescence plate reader (Photon Technology International, Edison, NJ, USA). […] Each kinetic trace was fit to a sigmoidal form:

[2] = tested on: INS-1 cells; assay: Cell viability (Cell-Titer Blue), IAPP induced toxicity and rescue; type: cell-based, rat; details: 13 μM IAPP; for rescue of IAPP induced toxicity, co-addition: 1:1 IAPP:ligand co-added, 48 h
Procedure: Rat insulinoma INS-1 cells (832/13, Dr. Gary W. Cline, Department of Internal Medicine, Yale University) were cultured at 37° C. and 5% CO2 in phenol red free RPMI 1640 media supplemented with 10% fetal bovine serum, 1% penicillin/streptomycin (Life Technologies, Carlsbad, CA, USA), and 2% INS-1 stock solution (500 mM HEPES, 100 mM L-glutamine, 100 mM sodium pyruvate, and 2.5 mM β-mercaptoethanol). Cells were passaged upon reaching ˜95% confluence (0.25% Trypsin-EDTA, Life Technologies), propagated, and/or used in experiments. Cells used in experiments were pelleted and resuspended in fresh media with no Trypsin-EDTA.
Cell viability was measured colourimetrically using the Cell-Titer Blue (CTB, Promega, Madison, WI, USA) fluorescence-based assay. Cells were plated at a density 5000 cells/well in 96-well plates (BD Biosciences, San Diego, CA). Peptide was directly introduced to each well after 48 h of culture and then further incubated for an additional 48 h. For time dependent experiments, cells were incubated with peptide for the specified time points. After the incubation period, 20 μL CTB reagent was added to each well and incubated at 37° C. and 5% CO2 for 2.5-3.5 h. Fluorescence of the resorufin product was measured on a FluoDia T70 fluorescence plate reader (Photon Technology International, Birmingham, NJ, USA). All wells included the same amount of water to account for different concentrations of peptide added to sample wells. Wells that included water vehicle but not peptide served as the negative control (0% toxic), and wells containing 10% DMSO were the positive control (100% toxic). Percent toxicity was calculated using the following equation: […]
Each independent variable is the average of eight plate replicates from the negative control (<N>), positive control (<P>), and samples (<S>). Results presented for viability experiments are an average of three such experiments conducted independently on different days. Error bars represent the standard error of the mean.

[3] = tested on: Src and its homologue, Abl; details: background statement; cited from earlier work
[4] = target: T2, IAPP20-29 (Homo sapiens, UniProt P10997); assay: Amyloid assembly kinetics of the 10-residue peptide IAPP20-29; type: biochemical; details: 200 μM IAPP20-29
T2 construct: the 10-residue sub-peptide, IAPP20-29
Procedure: Amyloid reactions were conducted in buffer containing liposome (630 μM lipid) and 20 μM ThT in a black 96-well plate. This was followed by addition of small molecule dissolved in DMSO (final DMSO concentration=0.5%, v/v). Fibre formation was initiated by addition of IAPP stock solution. The final volume in each well was 200 μL. Kinetics of fibrillation was monitored by ThT fluorescence (Ex 450 nm and Em 485 nm) using a FluoDia T70 fluorescence plate reader (Photon Technology International, Edison, NJ, USA). The data were blank subtracted and renormalized to the maximum intensity of reactions containing only IAPP. Each kinetic trace was fit to a sigmoidal form:
[formula] where I is the fluorescence intensity, t is time, and b, m, and r are dependent fitting variables. All samples were run at least in triplicate and error bars shown in the text represent ±one standard deviation. Transmission Electron Microscopy

Compound | effect on liposome catalysed fibrillation [1] | rescue of IAPP induced toxicity, co-addition [2] | further results
COC(=O)c1cc(OCC(=O)O)c2cccc(NC(=O)c3cc(OCC(=O)O)c4cccc(NC(=O)c5cc(OCC(=O)O)c6cccc(NC(=O)c7cc(OCC(=O)O)c8cccc(NC(=O)c9cc(OCC(=O)O)c%10cccc([N+](=O)[O-])c%10n9)c8n7)c6n5)c4n3)c2c1 [ADM-118] | – | – | inhibition of liposome catalysed fibrillation, t50 relative to control [1]: 3.3±0.1 fold
O=C(O[C@@H]1Cc2c(O)cc(O)cc2O[C@@H]1c1cc(O)c(O)c(O)c1)c1cc(O)c(O)c(O)c1 [EGCG] | no detectable effect | ineffective in rescuing toxicity | –
Cc1ccc(NC(=O)c2ccc(CN3CCN(C)CC3)cc2)cc1Nc1nccc(-c2cccnc2)n1 [Gleevec] | – | – | difference in binding affinity between Src and Abl [3]: > 1,000 fold
Oc1ccc(C=Cc2cc(O)cc(O)c2)cc1 [resveratrol] | no detectable effect | ineffective in rescuing toxicity | –
IAPP20-29: 10-residue sub-peptide of IAPP, residues 20-29 (SNNFGAILSS; Islet amyloid polypeptide; UniProt P10997 53-62, looked up, fragment) | – | – | t50 of amyloid formation [4]: 6.6 ± 0.3 h
IAPP: 37-residue, C-terminally amidated human islet amyloid polypeptide (SEQ ID NO:1) (KCNTATCATQRLANFLVHSSNNFGAILSSTNVGSNTY-NH2; cysteine pairing not given here) | – | – | decrease of INS-1 viability ([2]; 48 h incubation): 78±8%
acid fuchsin | no detectable effect | ineffective in rescuing toxicity | –
